Measurements taken from patent US6673749B1, “Use of phyllocladane diterpenoids for plant growth promotion and alleviation of growth retardant allelochemicals, and method therefor” (Council of Scientific and Industrial Research, priority 2002, dated 2004).

Assays:
Format in all cases: in vivo
Hibiscus sabdariffa [1] = assay: Antagonistic effect with Artemisia annua seed extract on germination and seedling growth; details: A. annua seed extract (1.3 g seeds/100 ml) alone or mixed 1:1 with 0.01 μm compound, control = 100%
Method: (§1) On the other hand, it is evident from Exp. 1-4 that phyllocladane diterpenenoids have produced germination and growth promoting activities on various plant species. To find out the combined effect of A. annua extract and phyllocladane diterpenoides on the germination and seedling growth of different plant species, 1:1 ratio of these compounds and A.annua extract were tested in the present experiment. For this, Hibiscus sabdariffa and Sesbania cannabina seeds were germinated in A.annua seed extract and solutions prepared by mixing this extract with 0.01 μm calliterpenone and calliterpenone mono-acetate respectively (Table 7). For the preparation of A.annua extract, 1.3 g seeds were soaked in 100 ml of distilled water for 24 hrs for testing on H. sabdariffa. Since, at this concentration, seeds of this species have shown 69% mortality which may be taken as good indicator. This effect was also recorded in S.cannabina. Since, in this case, seeds were almost half in weight as compared to the seeds of H. sabdariffa, accordingly, 0.65 g A. annua seeds were soaked in 100 ml of distilled water for 24 hrs to produce identical constraints in S. cannabina. For control, seeds were germinated in distilled water and all the observations were compared with it. […] Therefore, calliterpenone and its derivatives can be used to nullify the effects of other growth retardants/allelochemicals in the fields for their reclamation.

Sesbania cannabina [2] = assay: as above; details: A. annua seed extract (0.65 g seeds/100 ml) alone or mixed 1:1 with 0.01 μm compound, control = 100%
Method: as §1

Triticum aestivum = assay: Seed germination and seedling shoot/root growth test in petridishes; details: control = 100%
In short: (§2)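 Ten seeds per 9.0 cm dish on filter paper wetted with 0.1, 0.01 or 0.001 μM compound solution (ethanol or acetone cosolvent, matched in controls), in triplicate. Incubated 9 days at 25.0±1.0 °C, 90% humidity, 4 hr light/day. Germination and shoot and root length expressed relative to control taken as 100%.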

Vigna radiata = assay: as above; details: Vigna radiata, control = 100%
In short: as §2

Hordeum vulgare = assay: as above; details: control = 100%
In short: as §2

[3] = tested on: Trigonella foenum-graecum; assay: as above; details: for Percent (%) germination of seeds in relation to control on 9th day after sowing / Percent (%) root growth of seedlings in relation to control on 9th day after sowing / Percent (%) shoot growth of seedlings in relation to control on 9th day after sowing: Trigonella foenum graecum, control = 100%
In short: as §2

Hibiscus sabdariffa [4] = assay: Seed germination and seedling growth, comparison with GA3 (Example 4)
Method: (§3) 100 ml stalk solutions of 0.1 μM concentration were prepared by dissolving required amounts of various test compounds (depending upon their molecular weights) in minimum amount of ethanol or acetone and adding distilled water. From this stalk solution, 0.01 μM and 0.001 μM concentrations were prepared. Calliterpenone and calliterpenone di acetate was dissolved in 2.0 ml absolute ethanol (Merc), while; calliterpenone monoacetate, isopropylideno calliterpenone and trihydroxy calliterpenone were dissolved in 2.0 ml spectral grade acetone (Ranbaxy). The respective control test solutions of distilled water of each concentration also contained equal amount of absolute ethanol or acetone. For an assay, 10 seeds were placed on Whatman filter paper (moistened with 5.0 ml of test solution in a 9.0 cm diameter petridish (in triplicate). The pteridishes were incubated for 9 days in a germinator, maintained at 25.0±1.0° C. with 90% humidity and 4 hr light/day. At the end of incubation, observations were recorded on the seedlings in terms of germination, shoot and root growth. The data on the length of shoot and root of seedlings and number of seeds germinated in different concentrations of compounds were compared with the control, which was taken as 100%. The data thus obtained were presented in Table-1.
(§4) Effect of calliterpenone and its derivatives on seed germination and seedling growth in Hibiscus sabdariffa and Sesbania cannabina were measured in the similar way as these were measured in Example-1.

Sesbania cannabina [5] = assay: as above
Method: as §3, §4

## CC1(C)C(=O)CC[C@@]2(C)[C@H]1CC[C@@]13C[C@H](CC[C@@H]12)[C@@](O)(CO)C3 [Calliterpenone, 16α, 17 dihydroxy phyllocladan-3 one]
Hibiscus sabdariffa [1]
  Percent (%) germination in relation to control on the 9th day after sowing: nullified the germination retarding effect
  Percent (%) seedling growth, Root, in relation to control on the 9th day after sowing: 150%
  Percent (%) seedling growth, Stem, in relation to control on the 9th day after sowing: 130%
Sesbania cannabina [2]
  Percent (%) germination in relation to control on the 9th day after sowing: no improvement in seed germination
  Percent (%) seedling growth, Root, in relation to control on the 9th day after sowing: 225%
  Percent (%) seedling growth, Stem, in relation to control on the 9th day after sowing: 144%
Triticum aestivum; 0.001 μM
  Percent (%) germination of seeds in relation to control on 9th day after sowing: 100%
  Percent (%) root growth of seedlings in relation to control on 9th day after sowing: 136%
  Percent (%) shoot growth of seedlings in relation to control on 9th day after sowing: 105%
Triticum aestivum; 0.01 μM
  Percent (%) germination of seeds in relation to control on 9th day after sowing: 100%
  Percent (%) root growth of seedlings in relation to control on 9th day after sowing: 80%
  Percent (%) shoot growth of seedlings in relation to control on 9th day after sowing: 100%
Triticum aestivum; 0.1 μM
  Percent (%) germination of seeds in relation to control on 9th day after sowing: 100%
  Percent (%) root growth of seedlings in relation to control on 9th day after sowing: 80%
  Percent (%) shoot growth of seedlings in relation to control on 9th day after sowing: 95%
Vigna radiata; 0.001 μM
  Percent (%) germination of seeds in relation to control on 9th day after sowing: 250%
  Percent (%) root growth of seedlings in relation to control on 9th day after sowing: 87%
  Percent (%) shoot growth of seedlings in relation to control on 9th day after sowing: 121%
Vigna radiata; 0.01 μM
  Percent (%) germination of seeds in relation to control on 9th day after sowing: 150%
  Percent (%) root growth of seedlings in relation to control on 9th day after sowing: 138%
  Percent (%) shoot growth of seedlings in relation to control on 9th day after sowing: 134%
Vigna radiata; 0.1 μM
  Percent (%) germination of seeds in relation to control on 9th day after sowing: 150%
  Percent (%) root growth of seedlings in relation to control on 9th day after sowing: 76%
  Percent (%) shoot growth of seedlings in relation to control on 9th day after sowing: 128%
Hordeum vulgare; 0.001 μM
  Percent (%) germination of seeds in relation to control on 9th day after sowing: 100%
  Percent (%) root growth of seedlings in relation to control on 9th day after sowing: 116%
  Percent (%) shoot growth of seedlings in relation to control on 9th day after sowing: 118%
Hordeum vulgare; 0.01 μM
  Percent (%) germination of seeds in relation to control on 9th day after sowing: 100%
  Percent (%) root growth of seedlings in relation to control on 9th day after sowing: 116%
  Percent (%) shoot growth of seedlings in relation to control on 9th day after sowing: 103%
Hordeum vulgare; 0.1 μM
  Percent (%) germination of seeds in relation to control on 9th day after sowing: 100%
  Percent (%) root growth of seedlings in relation to control on 9th day after sowing: 82%
  Percent (%) shoot growth of seedlings in relation to control on 9th day after sowing: 102%
[3]; 0.001 μM
  Percent (%) germination of seeds in relation to control on 9th day after sowing: 113%
  Percent (%) root growth of seedlings in relation to control on 9th day after sowing: 141%
  Percent (%) shoot growth of seedlings in relation to control on 9th day after sowing: 121%
[3]; 0.01 μM
  Percent (%) germination of seeds in relation to control on 9th day after sowing: 125%
  Percent (%) root growth of seedlings in relation to control on 9th day after sowing: 164%
  Percent (%) shoot growth of seedlings in relation to control on 9th day after sowing: 130%
[3]; 0.1 μM
  Percent (%) germination of seeds in relation to control on 9th day after sowing: 113%
  Percent (%) root growth of seedlings in relation to control on 9th day after sowing: 150%
  Percent (%) shoot growth of seedlings in relation to control on 9th day after sowing: 121%
[3]; Trigonella foenum-graceum, concentration not specified
  Seed germination as compared to 100% in control: 113%
Hibiscus sabdariffa [4]; 0.001 μM
  Germination as compared to respective control: 133%
  Germination compared with GA3: 133%
  Root growth as compared to respective control: 157%
  Seed Ger.: 4
  Shoot growth as compared to GA3 (100%): 110%
  Shoot growth as compared to respective control: 182%
  Root Growth (mm) 3rd Day: 12.6 mm
  Shoot growth 3rd Day: 27.1
  Root Growth (mm) 6th Day: 28.6 mm
  Shoot growth 6th Day: 61.0
Hibiscus sabdariffa [4]; 0.001 μM, 9th day
  Root Growth (mm) 9th Day: 33.4 mm
  Root growth as compared to GA3 taken as 100%: 134%
  Shoot growth 9th Day: 94.6
Hibiscus sabdariffa [4]; 0.01 μM
  Seed Ger.: 2
  Root Growth (mm) 3rd Day: 17.0 mm
  Shoot growth 3rd Day: 39.8
  Root Growth (mm) 6th Day: 19.2 mm
  Shoot growth 6th Day: 78.0
Hibiscus sabdariffa [4]; 0.01 μM, 9th day
  Root Growth (mm) 9th Day: 25.8 mm
  Shoot growth 9th Day: 85.0
Hibiscus sabdariffa [4]; 0.1 μM
  Seed Ger.: 2
  Root Growth (mm) 3rd Day: 14.0 mm
  Shoot growth 3rd Day: 13.6
  Root Growth (mm) 6th Day: 21.5 mm
  Shoot growth 6th Day: 52.5
Hibiscus sabdariffa [4]; 0.1 μM, 9th day
  Root Growth (mm) 9th Day: 23.0 mm
  Shoot growth 9th Day: 72.5
Sesbania cannabina [5]; 0.001 μM
  Germination as compared to respective control: 150%
  Germination compared with GA3: 150%
  Root growth as compared to respective control: 119%
  Seed Ger.: 3
  Shoot growth as compared to GA3 (100%): 104%
  Shoot growth as compared to respective control: 120%
  Root Growth (mm) 3rd Day: 30.0 mm
  Shoot growth 3rd Day: 17.0
  Root Growth (mm) 6th Day: 33.6 mm
  Shoot growth 6th Day: 86.2
Sesbania cannabina [5]; 0.001 μM, 9th day
  Root Growth (mm) 9th Day: 43.4 mm
  Root growth as compared to GA3 taken as 100%: 109%
  Shoot growth 9th Day: 108.2
Sesbania cannabina [5]; 0.01 μM
  Seed Ger.: 3
  Root Growth (mm) 3rd Day: 14.5 mm
  Shoot growth 3rd Day: 14.2
  Root Growth (mm) 6th Day: 21.0 mm
  Shoot growth 6th Day: 48.8
Sesbania cannabina [5]; 0.01 μM, 9th day
  Root Growth (mm) 9th Day: 34.8 mm
  Shoot growth 9th Day: 67.3
Sesbania cannabina [5]; 0.1 μM
  Seed Ger.: 4
  Root Growth (mm) 3rd Day: 7.3 mm
  Shoot growth 3rd Day: 10.3
  Root Growth (mm) 6th Day: 16.0 mm
  Shoot growth 6th Day: 39.3
Sesbania cannabina [5]; 0.1 μM, 9th day
  Root Growth (mm) 9th Day: 24.8 mm
  Shoot growth 9th Day: 61.5
